Data taken from patent US9481659B2, “Selective heterocyclic sphingosine 1 phosphate receptor modulators” (Celgene International II SÀRL, priority 2011, dated 2016).
Where a name gives a salt, the structure may show the parent alone.

Target: S1P1/EDG1 (Homo sapiens, UniProt P21453)
Assay: S1P1 CRE-bla CHOK1 reporter assay, inhibition of Forskolin induced cAMP
Type: cell-based
Settings: agonist activity range; S1P1 CRE-bla CHOK1 cells, 2 μM Forskolin; read-out: S1P1 ACTIVITY
Procedure, shortened: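 CRE-bla CHO K1 cells stably expressing human S1P1 were treated 4 hrs at 37° C with 10-point compound dilutions plus 2 μM Forskolin. Inhibition of cAMP-driven β-lactamase reporter was read with a FRET substrate loaded 2 hrs at room temperature.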

S1P1/EDG1, sequence (P21453 whole entry): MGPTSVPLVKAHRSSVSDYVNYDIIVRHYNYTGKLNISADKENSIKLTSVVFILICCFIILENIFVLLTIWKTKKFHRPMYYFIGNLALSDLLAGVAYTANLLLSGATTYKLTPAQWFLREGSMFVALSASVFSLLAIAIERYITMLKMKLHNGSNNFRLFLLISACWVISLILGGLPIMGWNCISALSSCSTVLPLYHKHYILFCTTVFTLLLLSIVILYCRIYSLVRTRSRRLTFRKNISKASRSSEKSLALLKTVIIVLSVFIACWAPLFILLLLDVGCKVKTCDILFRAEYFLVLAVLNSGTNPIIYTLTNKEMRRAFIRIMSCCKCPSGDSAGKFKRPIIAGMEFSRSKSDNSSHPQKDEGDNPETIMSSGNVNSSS

Structure (SMILES) | EC50 [nM]
CC(C)Oc1ccc(-c2ncc(-c3cccc4c3CCC[C@H]4NS(N)(=O)=O)s2)cc1C#N [Compound 277, (R)—N-(5-(2-(3-cyano-4-isopropoxyphenyl)thiazol-5-yl)-1,2,3,4-tetrahydronaphthalen-1-yl)sulfamide] | 0.05 to 0.5
CC(C)Oc1ccc(-c2nnc(-c3cccc4c3CCC[C@H]4NS(C)(=O)=O)s2)cc1C#N [Compound 278, (R)—N-(5-(5-(3-cyano-4-isopropoxyphenyl)-1,3,4-thiadiazol-2-yl)-1,2,3,4-tetrahydronaphthalen-1-yl)methanesulfonamide] | 0.05 to 0.5
CC(C)Oc1ccc(-c2nnc(-c3cccc4c3CCC[C@@H]4NS(C)(=O)=O)s2)cc1C#N [Compound 279, (S)—N-(5-(5-(3 cyano-4-isopropoxyphenyl)-1,3,4-thiadiazol-2-yl)-1,2,3,4-tetrahydronaphthalen-1-yl)methanesulfonamide] | 0.05 to 0.5
COCCS(=O)(=O)N[C@@H]1CCCc2c(-c3nnc(-c4ccc(OC(C)C)c(C#N)c4)s3)cccc21 [Compound 280, (R)—N-(5-(5-(3-cyano-4-isopropoxyphenyl)-1,3,4-thiadiazol-2-yl)-1,2,3,4-tetrahydronaphthalen-1-yl)-2-methoxyethanesulfonamide] | 0.5 to 5
COCCS(=O)(=O)N[C@H]1CCCc2c(-c3nnc(-c4ccc(OC(C)C)c(C#N)c4)s3)cccc21 [Compound 281, (S)—N-(5-(5-(3-cyano-4-isopropoxyphenyl)-1,3,4-thiadiazol-2-yl)-1,2,3,4-tetrahydronaphthalen-1-yl)-2-methoxyethanesulfonamide] | 0.05 to 0.5
CC(C)Oc1ccc(-c2nnc(-c3cccc4c3CCC[C@H]4NS(=O)(=O)C3CC3)s2)cc1C#N [Compound 282] | 0.5 to 5
CC(C)Oc1ccc(-c2nnc(-c3cccc4c3CCC[C@@H]4NS(=O)(=O)C3CC3)s2)cc1C#N [Compound 283] | 0.05 to 0.5
COC(=O)CS(=O)(=O)N[C@H]1CCCc2c(-c3nnc(-c4ccc(OC(C)C)c(C#N)c4)s3)cccc21 [Compound 284, (S)-methyl 2-(N-(5-(5-(3-cyano-4-isopropoxyphenyl)-1,3,4-thiadiazol-2-yl)-1,2,3,4-tetrahydronaphthalen-1-yl)sulfamoyl)acetate] | 0.5 to 5
COCCS(=O)(=O)N[C@@H]1CCCc2c(-c3cnc(-c4ccc(OC(C)C)c(C#N)c4)s3)cccc21 [Compound 285] | 0.5 to 5
CCOC(=O)CCS(=O)(=O)N[C@H]1CCCc2c(-c3nnc(-c4ccc(OC(C)C)c(C#N)c4)s3)cccc21 [Compound 286, (S)-ethyl 3-(N-(5-(5-(3-cyano-4-isopropoxyphenyl)-1,3,4-thiadiazol-2-yl)-1,2,3,4-tetrahydronaphthalen-1-yl)sulfamoyl)propanoate] | 0.05 to 0.5
CC(C)Oc1ccc(-c2nnc(-c3cccc4c3CCC[C@H]4NS(=O)(=O)CC(=O)O)s2)cc1C#N [Compound 287, (R)-2-(N-(5-(5-(3-cyano-4-isopropoxyphenyl)-1,3,4-thiadiazol-2-yl)-1,2,3,4-tetrahydronaphthalen-1-yl)sulfamoyl)acetic acid] | 0.05 to 0.5
CC(C)Oc1ccc(-c2nnc(-c3cccc4c3CCC[C@@H]4NS(=O)(=O)CC(=O)O)s2)cc1C#N [Compound 288, (S)-2-(N-(5-(5-(3-cyano-4-isopropoxyphenyl)-1,3,4-thiadiazol-2-yl)-1,2,3,4-tetrahydronaphthalen-1-yl)sulfamoyl) acetic acid] | 0.05 to 0.5
CC(C)Oc1ccc(-c2nnc(-c3cccc4c3CCC[C@H]4NS(=O)(=O)CCO)s2)cc1C#N [Compound 289, (R)—N-(5-(5-(3-cyano-4-isopropoxyphenyl)-1,3,4-thiadiazol-2-yl)-1,2,3,4-tetrahydronaphthalen-1-yl)-2-hydroxyethanesulfonamide] | 0.05 to 0.5
CC(C)Oc1ccc(-c2nnc(-c3cccc4c3CCC[C@@H]4NS(=O)(=O)CCO)s2)cc1C#N [Compound 290, (S)—N-(5-(5-(3-cyano-4-isopropoxyphenyl)-1,3,4-thiadiazol-2-yl)-1,2,3,4-tetrahydronaphthalen-1-yl)-2-hydroxyethanesulfonamide] | 0.05 to 0.5
CC(C)Oc1ccc(-c2nnc(-c3cccc4c3CCC[C@@H]4NS(=O)(=O)CCCO)s2)cc1C#N [Compound 291] | 0.05 to 0.5
CC(C)Oc1ccc(-c2nnc(-c3cccc4c3CCC[C@H]4NS(=O)(=O)CC(=O)N(C)C)s2)cc1C#N [Compound 292, (R)-2-(N-(5-(5-(3-cyano-4-isopropoxyphenyl)-1,3,4-thiadiazol-2-yl)-1,2,3,4-tetrahydronaphthalen-1-yl)sulfamoyl)-N,N-dimethylacetamide] | 0.05 to 0.5
CC(C)Oc1ccc(-c2nnc(-c3cccc4c3CCC[C@@H]4NS(=O)(=O)CC(=O)N(C)C)s2)cc1C#N [Compound 293, (S)-2-(N-(5-(5-(3-cyano-4-isopropoxyphenyl)-1,3,4-thiadiazol-2-yl)-1,2,3,4-tetrahydronaphthalen-1-yl)sulfamoyl)-N,N-dimethylacetamide] | 0.05 to 0.5
CNC(=O)CS(=O)(=O)N[C@@H]1CCCc2c(-c3nnc(-c4ccc(OC(C)C)c(C#N)c4)s3)cccc21 [Compound 294] | 0.05 to 0.5

Structure (SMILES) | EC50 [nM]
CNC(=O)CS(=O)(=O)N[C@H]1CCCc2c(-c3nnc(-c4ccc(OC(C)C)c(C#N)c4)s3)cccc21 [Compound 295] | 0.05 to 0.5
CC(C)Oc1ccc(-c2nnc(-c3cccc4c3CCC[C@H]4NCCS(C)(=O)=O)s2)cc1C#N [Compound 296, (R)-2-isopropoxy-5-(5-(5-((2-(methylsulfonyl)ethyl)amino)-5,6,7,8-tetrahydronaphthalen-1-yl)-1,3,4-thiadiazol-2-yl)benzonitrile] | 0.05 to 0.5
CC(C)Oc1ccc(-c2nnc(-c3cccc4c3CCC[C@@H]4NCCS(C)(=O)=O)s2)cc1C#N [Compound 297, (S)-2-isopropoxy-5-(5-(5-((2-(methylsulfonyl)ethyl)amino)-5,6,7,8-tetrahydronaphthalen-1-yl)-1,3,4-thiadiazol-2-yl)benzonitrile] | 0.5 to 5
CNC(=O)CCS(=O)(=O)N[C@H]1CCCc2c(-c3nnc(-c4ccc(OC(C)C)c(C#N)c4)s3)cccc21 [Compound 298, (S)-3-(N-(5-(5-(3-cyano-4-isopropoxyphenyl)-1,3,4-thiadiazol-2-yl)-1,2,3,4-tetrahydronaphthalen-1-yl)sulfamoyl)-N-methylpropanamide] | 0.05 to 0.5
CC(C)Oc1ccc(-c2nnc(-c3cccc4c3CCC[C@H]4NCCO)s2)cc1C#N [Compound 299, (R)-5-(5-(5-((2-hydroxyethyl)amino)-5,6,7,8-tetrahydronaphthalen-1-yl)-1,3,4-thiadiazol-2-yl)-2-isopropoxybenzonitrile] | 0.5 to 5
CC(C)Oc1ccc(-c2nnc(-c3cccc4c3CCC[C@@H]4NCCO)s2)cc1C#N [Compound 300, (S)-5-(5-(5-((2-hydroxyethyl)amino)-5,6,7,8-tetrahydronaphthalen-1-yl)-1,3,4-thiadiazol-2-yl)-2-isopropoxybenzonitrile] | 0.05 to 0.5
CC(C)Oc1ccc(-c2nnc(-c3cccc4c3CCC[C@H]4NCC(=O)O)s2)cc1C#N [Compound 301, (R)-2-((5-(5-(3-cyano-4-isopropoxyphenyl)-1,3,4-thiadiazol-2-yl)-1,2,3,4-tetrahydronaphthalen-1-yl)amino)acetic acid] | 0.05 to 0.5
CC(C)Oc1ccc(-c2nnc(-c3cccc4c3CCC[C@@H]4NCC(=O)O)s2)cc1C#N [Compound 302, (S)-2-((5-(5-(3-cyano-4-isopropoxyphenyl)-1,3,4-thiadiazol-2-yl)-1,2,3,4-tetrahydronaphthalen-1-yl)amino)acetic acid] | 0.05 to 0.5
CC(C)Oc1ccc(-c2nnc(-c3cccc4c3CCC[C@H]4NCC(=O)N3CCCC3)s2)cc1C#N [Compound 303, (R)-2-isopropoxy-5-(5-(5-((2-oxo-2-(pyrrolidin-1-yl)ethyl)amino)-5,6,7,8-tetrahydronaphthalen-1-yl)-1,3,4-thiadiazol-2-yl)benzonitrile] | 0.05 to 0.5
CC(C)Oc1ccc(-c2nnc(-c3cccc4c3CCC[C@@H]4NCC(=O)N3CCCC3)s2)cc1C#N [Compound 304, (S)-2-isopropoxy-5-(5-(5-((2-oxo-2-(pyrrolidin-1-yl)ethyl)amino)-5,6,7,8-tetrahydronaphthalen-1-yl)-1,3,4-thiadiazol-2-yl)benzonitrile] | 0.5 to 5
CNC(=O)CN[C@@H]1CCCc2c(-c3nnc(-c4ccc(OC(C)C)c(C#N)c4)s3)cccc21 [Compound 305] | 0.05 to 0.5
CNC(=O)CN[C@H]1CCCc2c(-c3nnc(-c4ccc(OC(C)C)c(C#N)c4)s3)cccc21 [Compound 306] | 0.05 to 0.5
CC(C)Oc1ccc(-c2nc(-c3cccc4c3CC[C@@H]4N)ns2)cc1C#N [Compound 307, (S)-5-(3-(1-amino-2,3-dihydro-1H-Inden-4-yl)-1,2,4-thiadiazol-5-yl)-2-isopropoxy benzonitrile hydrochloride] | 0.5 to 5
CC(C)Oc1ccc(-c2nsc(-c3cccc4c3CC[C@@H]4N)n2)cc1C#N [Compound 308, (S)-5-(5-(1-amino-2,3-dihydro-1H-inden-4-yl)-1,2,4-thiadiazol-3-yl)-2-isopropoxy benzonitrile hydrochloride] | 0.5 to 5
CC(C)Oc1ccc(-c2nc(-c3cccc4c3CC[C@@H]4NS(N)(=O)=O)ns2)cc1C#N [Compound 309, (S)—N-(4-(5-(3-cyano-4-isopropoxyphenyl)-1,2,4-thiadiazol-3-yl)-2,3-dihydro-1H-inden-1-yl) sulfamide] | 0.05 to 0.5
CC(C)Oc1ccc(-c2nsc(-c3cccc4c3CC[C@@H]4NS(N)(=O)=O)n2)cc1C#N [Compound 310, (S)—N-(4-(3-(3-cyano-4-isopropoxyphenyl)-1,2,4-thiadiazol-5-yl)-2,3-dihydro-1H-inden-1-yl) sulfamide] | 0.05 to 0.5
CC(C)Oc1ccc(-c2nc(-c3cccc4c3CC[C@@H]4NCCO)ns2)cc1C#N [Compound 311, (S)-5-(3-(1-(2-hydroxyethyl)amino)-2,3-dihydro-1H-inden-4-yl)-1,2,4-thiadiazol-5-yl)-2-isopropoxybenzonitrile hydrochloride] | 0.5 to 5
